# According to article PMC4544630, “Contribution of C-glucosidic ellagitannins to Lythrum salicaria L. influence on pro-inflammatory functions of human neutrophils” (Journal of Natural Medicines, 2014):
# What was measured:
# [1] = test system: ROS; experiment: ROS release from PMA-stimulated neutrophils, lucigenin chemiluminescence; assay type: cell-based, human; conditions: PMA + lucygenin, % of stimulated control
# From the text: (§1) Peripheral venous blood was taken from healthy human donors (20–35 years old) in the Warsaw Blood Donation Centre. […] The study conformed to the principles of the Declaration of Helsinki. Neutrophils were isolated using a standard method of dextran sedimentation prior to hypotonic lysis of erythrocytes and to centrifugation in a Ficoll Hypaque gradient. The purity of neutrophil preparations was >97 %, and viability measured by trypan blue exclusion was >98 %. Neutrophils were then resuspended in appropriate medium to perform the selected assay.
# (§2) Generation of oxidants by f-MLP or PMA-stimulated neutrophils was measured using luminol- or lucigenin-dependent chemiluminescence tests. 70 μL of cell suspension (2 × 10^5/mL) in HBSS was incubated with 50 μL of compound or extract solution (final concentrations of 1, 5 and 20 μM or μg/mL) together with 50 μL of luminol (100 μM) or lucigenin (200 μM) solution. ROS production was initiated by the addition of 30 μL of f-MLP (0.1 μg/mL) or PMA (1 μg/mL). Changes in chemiluminescence at 37 °C were measured immediately for 45 min at intervals of 2 min in a microplate reader (Biotek). Ascorbic acid was used as a positive control.
# [2] = test system: MMP-9; experiment: MMP-9 production by LPS-stimulated neutrophils (ELISA); assay type: cell-based, human; conditions: LPS 100 ng/mL, 24 h, % of stimulated control
# From the text: as §1
# (§3) Neutrophils (2 × 10^5/mL) were cultured in 24-well plates in RPMI 1640 medium with 10 % FBS, 10 mM HEPES, and 2 mM L-glutamine in the absence or presence of LPS (100 ng/mL) for 24 h at 37 °C with 5 % CO2 in the absence or presence of extract at concentrations of 1, 5 and 20 μg/mL, and compounds at concentrations of 1, 5 and 20 μM were added to 1 mL of cell suspension 1 h before the stimuli. After 24 h, the neutrophils were harvested and centrifuged (2000 RPM; 10 min; 4 °C). The amount of IL-8 or MMP-9 released into cell supernatants was measured by enzyme-linked immunosorbent assay (ELISA) following the manufacturer’s instructions (R&D Systems, Minneapolis, MN, USA). PBS was used as a non-stimulated control. Curcumin was used as a positive control, according to Aggarwal and Harikumar and Antoine et al..
# [3] = test system: elastase; experiment: Elastase release from cytochalasin A/f-MLP-stimulated neutrophils (SAAVNA substrate); assay type: cell-based, human; conditions: % of stimulated control
# From the text: as §1
# Neutrophil elastase release was determined using SAAVNA as a substrate, and […] was measured spectrophotometrically. 100 μL of cell suspension (5 × 10^5/mL) in HBSS was preincubated with 50 μL of compound or extract solution (final concentrations of 1, 5 and 20 μM or μg/mL) for 15 min at 37 °C and then stimulated with 50 μL of cytochalasin A (5 μg/mL) and f-MLP (0.1 μg/mL) for 15 min. The neutrophils were centrifuged (2000 rpm; 10 min; 4 °C). After the addition of 50 μL of SAAVNA solution (1.6 mg/mL) to 100 μL of supernatant, the extent of […] was measured spectrophotometrically for 1 h at intervals of 20 min, at 412 nm using a microplate reader (BioTek). According to Kanashiro et al., quercetin was used as a positive control.
# [4] = target: T1, bovine testis hyaluronidase (Bos taurus, UniProt Q2YDK3); experiment: Hyaluronidase activity, USP turbidimetric method modified; assay type: biochemical; conditions: for Hyaluronidase activity Mean(%): % of 100% active enzyme control
# T1 construct: purchased Sigma–Aldrich GmbH (Steinheim, Germany); host or cells: bovine testis
# T1 sequence (Q2YDK3 36-553): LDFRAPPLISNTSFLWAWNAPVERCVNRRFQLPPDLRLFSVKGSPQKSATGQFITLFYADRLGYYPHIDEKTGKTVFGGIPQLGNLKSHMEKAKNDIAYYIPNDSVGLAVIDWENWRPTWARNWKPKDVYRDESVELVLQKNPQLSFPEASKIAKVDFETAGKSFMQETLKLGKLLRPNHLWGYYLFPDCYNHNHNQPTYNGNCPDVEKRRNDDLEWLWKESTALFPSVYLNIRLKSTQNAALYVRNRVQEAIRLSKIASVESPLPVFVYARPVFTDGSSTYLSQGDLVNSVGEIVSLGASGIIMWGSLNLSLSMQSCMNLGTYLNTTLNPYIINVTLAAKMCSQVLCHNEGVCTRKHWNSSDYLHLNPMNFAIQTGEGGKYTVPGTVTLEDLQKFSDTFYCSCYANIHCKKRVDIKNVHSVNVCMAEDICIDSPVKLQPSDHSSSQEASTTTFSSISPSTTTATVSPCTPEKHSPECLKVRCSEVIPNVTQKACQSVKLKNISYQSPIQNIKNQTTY
# From the text: The […] flowering herb was collected from its natural habitat in Umer in the Świętokrzyskie region (Poland) in July 2011. Its identity was confirmed anatomically and morphologically based on its pharmacopoeial monograph in the Department of Pharmacognosy and Molecular Basis of Phytotherapy, Medical University of Warsaw, where the voucher specimen UMER2011 is deposited. […] […]), castalagin ([…] (SB) and […]. 1, 2) from […] performed according to Piwowarski and Kiss. […] Isolated ellagitannins were of >95 % purity (determined by the HPLC-DAD-CAD method). […] Gallic acid (>96 % purity) was purchased from ChromaDex (Santa Ana, USA). Propidium iodide was purchased from BD Biosciences (San Diego, CA, USA). All substances used were of >95 % purity. Phosphate-buffered saline (PBS) was purchased from Gibco (Carlsbad, CA, USA). The influence of extract and ellagitannins on hyaluronidase activity was measured using the USP turbidimetric method modified by Piwowarski et al. […] Heparin was used as a positive control.
# [5] = test system: ROS; experiment: ROS release from f-MLP-stimulated neutrophils, luminol chemiluminescence; assay type: cell-based, human; conditions: % of stimulated control
# From the text: as §1, §2
# [6] = test system: MPO; experiment: MPO release from cytochalasin A/f-MLP-stimulated neutrophils (TMB substrate); assay type: cell-based, human; conditions: cytochalasin A/f-MLP, % of stimulated control
# From the text: Peripheral venous blood was taken from healthy human donors (20-35 years old) in the Warsaw Blood Donation Centre. […] The study conformed to the principles of the Declaration of Helsinki. Neutrophils were isolated using a standard method of dextran sedimentation prior to hypotonic lysis of erythrocytes and to centrifugation in a Ficoll Hypaque gradient. The purity of neutrophil preparations was >97 %, and viability measured by trypan blue exclusion was >98 %. Neutrophils were then resuspended in appropriate medium to perform the selected assay. Neutrophil MPO release was determined using TMB as a substrate. […] After centrifugation (2000 rpm; 10 min; 4 °C), 100 μL of supernatant was incubated with 50 μL of the TMB liquid substrate system. The reaction was terminated after 20 min by the addition of 2 M hydrochloric acid. The absorbance was measured at […] using a microplate reader (BioTek). Gallic acid was used as a positive control, according to Kroes et al..
# [7] = test system: IL-8; experiment: IL-8 production by LPS-stimulated neutrophils (ELISA); assay type: cell-based, human; conditions: LPS 100 ng/mL, 24 h, % of stimulated control
# From the text: as §1, §3
compound,measurement,setting,value
"O=C(OC1COC(=O)c2cc(O)c(O)c(O)c2-c2c(cc(O)c(O)c2O)C(=O)OC1C1OC(=O)c2cc(O)c(O)c(O)c2-c2c(O)c(O)c(O)c3c2C(=O)OC1C3O)c1cc(O)c(O)c(O)c1Oc1cc2c(c(O)c1O)-c1c(cc(O)c(O)c1O)C(=O)OCC1OC(=O)c3cc(O)c(O)c(O)c3-c3c(O)c(O)c(O)c4c3C(=O)OC(C1OC2=O)C1OC(=O)c2c-4c(O)c(O)c(O)c2C1O (centres unmarked) [SC, salicarinin C]",ROS release Mean(%),[1]; 1 μM,"66,62%"
same,ROS release Mean(%),[1]; 5 μM,"34,56%"
same,ROS release Mean(%),[1]; 20 μM,"7,37%"
same,MMP-9 production Mean (%),[2]; 1 μM,"97,74%"
same,MMP-9 production Mean (%),[2]; 5 μM,"92,17%"
same,MMP-9 production Mean (%),[2]; 20 μM,"86,61%"
same,Elastase release Mean(%),[3]; 1 μM,"85,10%"
same,Elastase release Mean(%),[3]; 5 μM,"80,91%"
same,Elastase release Mean(%),[3]; 20 μM,"50,60%"
same,IC50,[4],2.5 ± 0.2 µM
same,Hyaluronidase activity Mean(%),[4]; 1 μM,"81,82%"
same,Hyaluronidase activity Mean(%),[4]; 2 μM,"57,68%"
same,Hyaluronidase activity Mean(%),[4]; 5 μM,"8,00%"
same,Hyaluronidase activity Mean(%),[4]; 20 μM,"0,50%"
same,ROS release Mean(%),[5]; 1 μM,"63,16%"
same,ROS release Mean(%),[5]; 5 μM,"34,71%"
same,ROS release Mean(%),[5]; 20 μM,"18,92%"
same,MPO release Mean(%),[6]; 1 μM,"66,67%"
same,MPO release Mean(%),[6]; 5 μM,"52,85%"
same,MPO release Mean(%),[6]; 20 μM,"5,95%"
same,IL-8 production Mean (%),[7]; 1 μM,"77,70%"
same,IL-8 production Mean (%),[7]; 5 μM,"78,29%"
same,IL-8 production Mean (%),[7]; 20 μM,"56,68%"
"O=C1O[C@H]([C@@H](O)CO)C(O)=C1O [VitC, ascorbic acid, reference compound]",ROS release Mean(%),[1]; 1 μM,"93,99%"
same,ROS release Mean(%),[1]; 5 μM,"94,53%"
same,ROS release Mean(%),[1]; 20 μM,"85,15%"
same,ROS release Mean(%),[5]; 1 μM,"91,10%"
same,ROS release Mean(%),[5]; 5 μM,"79,14%"
same,ROS release Mean(%),[5]; 20 μM,"61,91%"
Heparin [reference compound],Hyaluronidase activity Mean(%),[4]; 1 μg/mL,"100,00%"
same,Hyaluronidase activity Mean(%),[4]; 2 μg/mL,"96,35%"
same,Hyaluronidase activity Mean(%),[4]; 5 μg/mL,"89,89%"
same,Hyaluronidase activity Mean(%),[4]; 20 μg/mL,"82,73%"
"O=C(O)c1cc(O)c(O)c(O)c1 [gal, Gallic acid, reference compound]",MPO release Mean(%),[6]; 1 μM,"85,62%"
same,MPO release Mean(%),[6]; 5 μM,"58,97%"
same,MPO release Mean(%),[6]; 20 μM,"18,88%"
"O=C(OC1COC(=O)c2cc(O)c(O)c(O)c2-c2c(cc(O)c(O)c2O)C(=O)OC1C1OC(=O)c2cc(O)c(O)c(O)c2-c2c(O)c(O)c(O)c3c2C(=O)OC1C3O)c1cc(O)c(O)c(O)c1Oc1cc2c(c(O)c1O)-c1c(cc(O)c(O)c1O)C(=O)OCC1OC(=O)c3cc(O)c(O)c(O)c3-c3c(O)c(O)c(O)c4c3C(=O)OC(C1OC2=O)C1OC(=O)c2c-4c(O)c(O)c(O)c2C1O (centres unmarked) [SA, salicarinin A]",ROS release Mean(%),[1]; 1 μM,"66,68%"
same,ROS release Mean(%),[1]; 5 μM,"44,80%"
same,ROS release Mean(%),[1]; 20 μM,"14,59%"
same,MMP-9 production Mean (%),[2]; 1 μM,"100,80%"
same,MMP-9 production Mean (%),[2]; 5 μM,"92,00%"
same,MMP-9 production Mean (%),[2]; 20 μM,"96,35%"
same,Elastase release Mean(%),[3]; 1 μM,"80,47%"
same,Elastase release Mean(%),[3]; 5 μM,"63,45%"
same,Elastase release Mean(%),[3]; 20 μM,"42,22%"
same,IC50,[4],1.6 ± 0.1 µM
same,Hyaluronidase activity Mean(%),[4]; 1 μM,"75,50%"
same,Hyaluronidase activity Mean(%),[4]; 2 μM,"35,96%"
same,Hyaluronidase activity Mean(%),[4]; 5 μM,"0,50%"
same,Hyaluronidase activity Mean(%),[4]; 20 μM,"1,13%"
same,ROS release Mean(%),[5]; 1 μM,"54,14%"
same,ROS release Mean(%),[5]; 5 μM,"27,84%"
same,ROS release Mean(%),[5]; 20 μM,"19,49%"
same,MPO release Mean(%),[6]; 1 μM,"61,96%"
same,MPO release Mean(%),[6]; 5 μM,"31,79%"
same,MPO release Mean(%),[6]; 20 μM,"1,52%"
same,IL-8 production Mean (%),[7]; 1 μM,"89,82%"
same,IL-8 production Mean (%),[7]; 5 μM,"81,38%"
same,IL-8 production Mean (%),[7]; 20 μM,"79,80%"
"COc1cc(/C=C/C(=O)CC(=O)/C=C/c2ccc(O)c(OC)c2)ccc1O [Cur, curcumin, reference compound]",MMP-9 production Mean (%),[2]; 1 μM,"100,14%"
same,MMP-9 production Mean (%),[2]; 5 μM,"64,26%"
same,MMP-9 production Mean (%),[2]; 20 μM,"39,26%"
same,IL-8 production Mean (%),[7]; 1 μM,"112,66%"
same,IL-8 production Mean (%),[7]; 5 μM,"58,75%"
same,IL-8 production Mean (%),[7]; 20 μM,"26,70%"
"O=c1c(O)c(-c2ccc(O)c(O)c2)oc2cc(O)cc(O)c12 [Q, quercetin, reference compound]",Elastase release Mean(%),[3]; 1 μM,"104,09%"
same,Elastase release Mean(%),[3]; 5 μM,"78,40%"
same,Elastase release Mean(%),[3]; 20 μM,"55,22%"
